Measurements published in paper PMC4052943 (BioMed Research International, 2014).
Read-outs that look alike come from different tables or passages of the source.

Legend:
[1] = tested on: BP-induced DNA adducts (rat liver microsomes, st-DNA); assay: Microsomal BP-DNA adducts, 32P-postlabeling; format: biochemical; settings: for BP-induced DNA adducts: BP 1 μM, rat liver microsomes, st-DNA
Method: st-DNA (300 μg/mL) was preincubated with 50 mM Tris-HCl (pH 7.5), 1 mM MgCl2, 2.5 mM glucose-6-phosphate, 1 U/mL G6PDH, 0.5 mM NADP+, and α-naphthoflavone-induced rat liver microsomal proteins (1 mg/mL) in 1 mL for 10 min, in the presence of vehicle alone and PC and EA at 20 and 40 μM. […] The incubation was continued for another 30 min at 37°C and then reaction was terminated by the addition of EDTA and centrifugation (9,000 g; 10 min). DNA was isolated from the supernatant by removal of RNA and proteins by digestions with RNases A and T1 and proteinase K and a series of extractions with phenol, phenol: Sevag (chloroform : isoamyl alcohol, 24 : 1), and Sevag, followed by precipitation of the DNA with ethanol. The DNA concentration was estimated spectrophotometrically.
DNA adducts were analyzed by ^32P-postlabeling as described earlier. Briefly, 10 μg of DNA was digested with micrococcal nuclease and spleen phosphodiesterase (MN/SPD). Before further treatment with nuclease P1 to enrich DNA adducts, an aliquot was removed for evaluation of normal nucleotide levels. DNA adducts and normal nucleotides were labelled with [γ-^32P]ATP and T4 polynucleotide kinase. Labelled adducts were separated by multidirectional polyethyleneimine (PEI)-cellulose TLC using the following solvents: D1, 1.0 M sodium phosphate, pH 6.0; D3, 4 M lithium formate/7 M urea, pH 3.5; D4, 4 M ammonium hydroxide/isopropanol (1 : 0.9); and D5, 1.7 M sodium phosphate, pH 6.0. Normal nucleotides were resolved in 180 mM sodium phosphate, pH 6.0, by one-directional PEI-cellulose TLC. DNA adducts and normal nucleotides were detected and quantified by Packard InstantImager.

[2] = tested on: Salmonella typhimurium TA97a; settings: TA 97a
Method: (§1) In the preincubation experiment, test compounds and mutagen, each having a volume of 0.1 mL of varying concentrations, were preincubated at 37°C for 30 min and then 0.1 mL of 1 × 10^7 CFU/mL density of the bacterial culture was added, followed by the addition of 2.5 mL of top agar at 45°C (containing 0.5% NaCl and 0.6% agar) supplemented with 0.5 mM histidine-biotin. […] The combined solutions were vortexed and poured onto minimal glucose plates (40% glucose solution and Vogel Bonner medium). The plates were incubated at 37°C for 48 h and the numbers of histidine-independent revertants colonies were scored.
(§2) Survival of the bacteria was routinely monitored for each experiment. Parallel controls were run with compounds alone at all concentrations to test the possible toxicity. The concentrations of the test samples for investigating the antimutagenicity were 50, 100, 200, and 500 μM. […] All the test samples and mutagens were dissolved in DMSO (final conc., 0.01%). […] Plates were set up in triplicate for each concentration and the entire experiment was repeated three times. Inhibition of mutagenicity was expressed as percentage decrease of reverse mutation and calculated as (1) Percent inhibition=[(a−b)/(a−c)]×100, where a = number of histidine revertants induced by mutagen, b = number of histidine revertants induced by mutagen in the presence of test compound, and c = number of revertants induced in negative control.

[3] = tested on: Salmonella typhimurium TA98
Method: as §1, §2

[4] = tested on: Salmonella typhimurium TA100
Method: as §1, §2

## O=C1O[C@H]2[C@@H]3OC(=O)c4cc(O)c(O)c(O)c4-c4c(O)c(O)c5oc(=O)c6c(c(O)c(O)c7oc(=O)c4c5c76)-c4c(cc(O)c(O)c4O)C(=O)OC[C@H]3OC(O)[C@@H]2OC(=O)c2cc(O)c(O)c(O)c2-c2c1cc(O)c(O)c2O (mixture of isomers) [Punicalagin]
[1]; 20 μM test compound
  BP-induced DNA adducts: 42.9 ± 16 DNA adducts/10^8 nucleotides
[1]; 40 μM test compound
  BP-induced DNA adducts: 7.2 ± 6.1 DNA adducts/10^8 nucleotides
[1]; 40 μM, BP with rat liver microsomes, cofactors, DNA
  inhibition of BP-induced DNA adducts: 97%
[2]; 50 μM alone (negative control), 2AF tables
  Number of His+ revertants colonies/plate: 132.3 ± 8.8 colonies/plate
[2]; 50 μM alone (negative control), BP tables
  Number of His+ revertants colonies/plate: 132.3 ± 8.8 colonies/plate
[2]; 50 μM alone (negative control), MMS tables
  Number of His+ revertants colonies/plate: 141.3 ± 5.2 colonies/plate
[2]; 50 μM alone (negative control), NaN3 tables
  Number of His+ revertants colonies/plate: 141.3 ± 5.2 colonies/plate
[2]; 100 μM alone (negative control), 2AF tables
  Number of His+ revertants colonies/plate: 158.0 ± 7.4 colonies/plate
[2]; 100 μM alone (negative control), BP tables
  Number of His+ revertants colonies/plate: 158.0 ± 7.4 colonies/plate
[2]; 100 μM alone (negative control), MMS tables
  Number of His+ revertants colonies/plate: 153.7 ± 9.2 colonies/plate
[2]; 100 μM alone (negative control), NaN3 tables
  Number of His+ revertants colonies/plate: 153.7 ± 9.2 colonies/plate
[2]; 250 μM alone (negative control), 2AF tables
  Number of His+ revertants colonies/plate: 165.7 ± 10.9 colonies/plate
[2]; 250 μM alone (negative control), BP tables
  Number of His+ revertants colonies/plate: 165.7 ± 10.9 colonies/plate
[2]; 250 μM alone (negative control), MMS tables
  Number of His+ revertants colonies/plate: 158.3 ± 7.1 colonies/plate
[2]; 250 μM alone (negative control), NaN3 tables
  Number of His+ revertants colonies/plate: 158.3 ± 7.1 colonies/plate
[2]; 500 μM alone (negative control), 2AF tables
  Number of His+ revertants colonies/plate: 188.0 ± 9.5 colonies/plate
[2]; 500 μM alone (negative control), BP tables
  Number of His+ revertants colonies/plate: 188.0 ± 9.5 colonies/plate
[2]; 500 μM alone (negative control), MMS tables
  Number of His+ revertants colonies/plate: 174.0 ± 6.4 colonies/plate
[2]; 500 μM alone (negative control), NaN3 tables
  Number of His+ revertants colonies/plate: 174.0 ± 6.4 colonies/plate
[3]; Salmonella typhimurium
  Number of His+ revertants colonies/plate: 31.0 ± 1.7 colonies/plate
[3]; TA 98, 50 μM alone (negative control), 2AF tables
  Number of His+ revertants colonies/plate: 40.7 ± 2.9 colonies/plate
[3]; TA 98, 50 μM alone (negative control), BP tables
  Number of His+ revertants colonies/plate: 40.7 ± 2.9 colonies/plate
[3]; TA 98, 50 μM alone (negative control), MMS tables
  Number of His+ revertants colonies/plate: 42.3 ± 1.8 colonies/plate
[3]; TA 98, 50 μM alone (negative control), NaN3 tables
  Number of His+ revertants colonies/plate: 42.3 ± 1.8 colonies/plate
[3]; TA 98, 100 μM alone (negative control), 2AF tables
  Number of His+ revertants colonies/plate: 36.3 ± 1.8 colonies/plate
[3]; TA 98, 100 μM alone (negative control), BP tables
  Number of His+ revertants colonies/plate: 36.3 ± 1.8 colonies/plate
[3]; TA 98, 100 μM alone (negative control), MMS tables
  Number of His+ revertants colonies/plate: 35.7 ± 1.8 colonies/plate
[3]; TA 98, 100 μM alone (negative control), NaN3 tables
  Number of His+ revertants colonies/plate: 35.7 ± 1.8 colonies/plate
[3]; TA 98, 250 μM alone (negative control), BP tables
  Number of His+ revertants colonies/plate: 31.0 ± 1.7 colonies/plate
[3]; TA 98, 250 μM alone (negative control), MMS tables
  Number of His+ revertants colonies/plate: 30.0 ± 1.2 colonies/plate
[3]; TA 98, 250 μM alone (negative control), NaN3 tables
  Number of His+ revertants colonies/plate: 30.0 ± 1.2 colonies/plate
[3]; TA 98, 500 μM alone (negative control), 2AF tables
  Number of His+ revertants colonies/plate: 22.3 ± 1.8 colonies/plate
[3]; TA 98, 500 μM alone (negative control), BP tables
  Number of His+ revertants colonies/plate: 22.3 ± 1.8 colonies/plate
[3]; TA 98, 500 μM alone (negative control), MMS tables
  Number of His+ revertants colonies/plate: 27.3 ± 2.0 colonies/plate
[3]; TA 98, 500 μM alone (negative control), NaN3 tables
  Number of His+ revertants colonies/plate: 27.3 ± 2.0 colonies/plate
[4]; Salmonella typhimurium
  Number of His+ revertants colonies/plate: 175.3 ± 14.3 colonies/plate
[4]; TA 100, 50 μM alone (negative control), 2AF tables
  Number of His+ revertants colonies/plate: 136.0 ± 11.7 colonies/plate
[4]; TA 100, 50 μM alone (negative control), BP tables
  Number of His+ revertants colonies/plate: 136.0 ± 11.7 colonies/plate
[4]; TA 100, 50 μM alone (negative control), MMS tables
  Number of His+ revertants colonies/plate: 189.7 ± 12.0 colonies/plate
[4]; TA 100, 50 μM alone (negative control), NaN3 tables
  Number of His+ revertants colonies/plate: 189.7 ± 12.0 colonies/plate
[4]; TA 100, 100 μM alone (negative control), 2AF tables
  Number of His+ revertants colonies/plate: 162.7 ± 15.0 colonies/plate
[4]; TA 100, 100 μM alone (negative control), BP tables
  Number of His+ revertants colonies/plate: 162.7 ± 15.0 colonies/plate
[4]; TA 100, 100 μM alone (negative control), MMS tables
  Number of His+ revertants colonies/plate: 181.0 ± 7.4 colonies/plate
[4]; TA 100, 100 μM alone (negative control), NaN3 tables
  Number of His+ revertants colonies/plate: 181.0 ± 7.4 colonies/plate
[4]; TA 100, 250 μM alone (negative control), BP tables
  Number of His+ revertants colonies/plate: 175.3 ± 14.3 colonies/plate
[4]; TA 100, 250 μM alone (negative control), MMS tables
  Number of His+ revertants colonies/plate: 165.3 ± 5.4 colonies/plate
[4]; TA 100, 250 μM alone (negative control), NaN3 tables
  Number of His+ revertants colonies/plate: 165.3 ± 5.4 colonies/plate
[4]; TA 100, 500 μM alone (negative control), 2AF tables
  Number of His+ revertants colonies/plate: 191.0 ± 15.0 colonies/plate
